{"source": "patent US11026953B2", "about": "“3-beta-hydroxy-5-alpha-pregnan-20-one for use in treatment of essential tremor” (ASARINA PHARMA AB, priority 2017, dated 2021)", "key": {"[1]": {"settings": "essential tremor, cited from earlier work"}, "[2]": {"molecular_target": "T1, human alpha4,beta3,delta GABAA receptor (Homo sapiens, UniProt P28472+P48169)", "T1 construct": "expressed in transfected cells", "T1 sequence (P48169 36-554)": "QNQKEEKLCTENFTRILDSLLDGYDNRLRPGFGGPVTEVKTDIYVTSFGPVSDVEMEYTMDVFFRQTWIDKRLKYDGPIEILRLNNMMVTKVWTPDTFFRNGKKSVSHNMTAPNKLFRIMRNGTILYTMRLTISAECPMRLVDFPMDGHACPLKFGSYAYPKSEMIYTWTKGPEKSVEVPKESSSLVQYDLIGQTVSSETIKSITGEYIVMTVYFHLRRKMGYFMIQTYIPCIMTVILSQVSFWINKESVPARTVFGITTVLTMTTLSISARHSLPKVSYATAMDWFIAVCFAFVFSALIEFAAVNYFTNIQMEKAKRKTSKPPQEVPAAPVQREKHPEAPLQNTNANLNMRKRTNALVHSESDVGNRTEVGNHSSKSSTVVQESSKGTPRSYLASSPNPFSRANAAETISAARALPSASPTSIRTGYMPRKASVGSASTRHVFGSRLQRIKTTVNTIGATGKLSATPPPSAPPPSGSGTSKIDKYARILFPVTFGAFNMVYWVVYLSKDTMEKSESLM", "T1 sequence (P28472 26-473)": "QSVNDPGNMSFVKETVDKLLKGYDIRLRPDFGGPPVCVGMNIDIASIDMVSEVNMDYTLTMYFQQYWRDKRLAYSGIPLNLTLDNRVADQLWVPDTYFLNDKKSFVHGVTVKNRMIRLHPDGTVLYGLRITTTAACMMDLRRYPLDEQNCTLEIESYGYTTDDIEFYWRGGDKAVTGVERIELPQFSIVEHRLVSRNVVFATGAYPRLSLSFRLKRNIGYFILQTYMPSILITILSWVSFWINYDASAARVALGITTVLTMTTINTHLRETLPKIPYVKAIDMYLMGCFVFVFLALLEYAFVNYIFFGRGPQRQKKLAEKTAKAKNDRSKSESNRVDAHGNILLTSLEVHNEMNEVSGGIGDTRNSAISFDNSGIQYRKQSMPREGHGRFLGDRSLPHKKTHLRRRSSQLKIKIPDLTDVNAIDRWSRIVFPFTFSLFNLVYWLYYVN", "T1 sequence (O14764 17-452 partner limits assumed)": "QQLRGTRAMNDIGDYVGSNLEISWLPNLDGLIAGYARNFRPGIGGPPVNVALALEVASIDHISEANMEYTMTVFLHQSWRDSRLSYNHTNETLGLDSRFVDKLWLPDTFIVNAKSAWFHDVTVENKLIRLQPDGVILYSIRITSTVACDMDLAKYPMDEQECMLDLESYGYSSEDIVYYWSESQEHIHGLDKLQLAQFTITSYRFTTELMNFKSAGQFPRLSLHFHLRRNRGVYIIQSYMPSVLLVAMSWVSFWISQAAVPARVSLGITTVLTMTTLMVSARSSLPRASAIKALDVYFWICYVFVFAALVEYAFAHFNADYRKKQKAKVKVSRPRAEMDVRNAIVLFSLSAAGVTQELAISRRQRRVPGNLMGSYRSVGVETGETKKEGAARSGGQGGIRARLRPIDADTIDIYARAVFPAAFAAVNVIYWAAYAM", "experiment": "Patch-clamp (Dynaflow) current response in HEK-293 cells expressing the human alpha4,beta3,delta GABAA receptor", "format": "cell-based", "description": "(§1) Assay for testing GABAA receptor effects of 3beta-hydroxy-5alpha-pregnan-20-one on human alpha1,beta,gamma and alpha4,beta,delta GABAA receptor subtype.\n(§2) In these tests the protocol was optimized to be similar to the physiological conditions in the synaptic cleft.\n(§3) Cell culture: HEK-293 cells, permanently transfected with the human alpha1,beta,gamma and alpha4,beta,delta GABAA receptor subtypes, were seeded at a density of 3×10^4/25 cm^2 in cellbind culture flask. The transfected cells were used for patch-clamp experiments 3 days after seeding. When using the cells for patch-clamp experiments the cells were washed twice with oxygen-bubbled extracellular (EC) solution (see below). About 5 mL EC was then added and the cells were kept in the incubator for about 15 minutes. After 15 minutes the cells came loose from the bottom of the flask and were separated by carefully sucking couple of times with a Pasteur pipette.\n(§4) DYNAFLOW™ system with Resolve chip was used for patch-clamp experiments: The electrophysiological recordings from HEK-293 cells were performed under voltage-clamp conditions using patch-clamp technique and the DYNAFLOW™ system (DYNAFLOW™ Pro II Platform Zeiss Axiovert 25; Cellectricon AB, Sweden) with Resolve chips as application system.\n(§5) Patch pipettes were pulled from borosilicate glass and polished to a resistance 2-5 MΩ when filled with suitable intracellular solution (IC) (pH was adjusted to 7.2) and immersed in bath solution (extracellular, EC) (pH is adjusted to 7.4). The recordings were made using an Axopatch 200B amplifier, a Digidata 1322A (Axon instruments, Foster city, USA). Data were acquired using the pCLAMP software sampled at 10 kHz, filtered at 2-10 kHz and analyzed with Clampfit (versions 9.0, both from Axon instruments, Foster city, USA). No higher series resistance than 20 MΩ between pipette and cell membrane was accepted. No series resistance compensation was used. The stability of series resistance was monitored repeatedly from the time course of capacitative transients during the experiments. The measured liquid-junction potential between EC and IC was subtracted in all data presented. An experiments were performed at room temperature (21-23° C.).\n(§6) All steroids were dissolved to the concentration of 6 mM in DMSO. […] End solutions were the solutions added into the wells of the chip.\n(§7) Electrophysiology: After compensating for the liquid junction potential a steady holding potential of −17 mV was used in all experiments. […] By using the holding potential of −17 mV and the intracellular solution with low chloride ion concentration the chloride ions flux into the cell when the receptors were activated.\nThe DYNAFLOW™ system allowed application of solutions for as short as 40 ms up to minutes in time. […] Therefore, the first GABA application was always repeated twice and the second response was used in the analysis.\nWashout: GABA is quite soluble in water and easy to washout from the receptor. […] Steroids on the other hand were difficult to dissolve in water and also difficult to washout from the receptor. In the experiments, THDOC and 3alpha-OH-adiol were used as the positive GABAA receptor modulating steroids. With 2 minutes washout time, 200 nM THDOC and 3alpha-OH-adiol was completely washed out as shown by neither an accumulative nor a desensitization effect.\n(§8) Different incubation times were studied to achieve the optimal time for attain stable results and minimize the washout time.\n(§9) Biological evaluation—HEK-293 cells, permanently transfected with human alpha1,beta,gamma and alpha4,beta,delta GABAA receptor subtypes and expressing these GABAA receptors.\nCell lines permanently expressing a functional human GABAA receptor was made in following steps. The GABAA receptor subunits alpha1,beta2,gamma2L or alpha4,beta3,delta including introduced Kozac sequences just before the start codons were subcloned into mammalian expression vectors containing Geneticin, Hygromycin B, and Zeocin resistance, respectively. […]"}, "[3]": {"molecular_target": "T2, human alpha1,beta2,gamma2 GABAA receptor (Homo sapiens, UniProt P14867+P47870)", "T2 construct": "expressed in transfected cells", "T2 sequence (P14867 28-456)": "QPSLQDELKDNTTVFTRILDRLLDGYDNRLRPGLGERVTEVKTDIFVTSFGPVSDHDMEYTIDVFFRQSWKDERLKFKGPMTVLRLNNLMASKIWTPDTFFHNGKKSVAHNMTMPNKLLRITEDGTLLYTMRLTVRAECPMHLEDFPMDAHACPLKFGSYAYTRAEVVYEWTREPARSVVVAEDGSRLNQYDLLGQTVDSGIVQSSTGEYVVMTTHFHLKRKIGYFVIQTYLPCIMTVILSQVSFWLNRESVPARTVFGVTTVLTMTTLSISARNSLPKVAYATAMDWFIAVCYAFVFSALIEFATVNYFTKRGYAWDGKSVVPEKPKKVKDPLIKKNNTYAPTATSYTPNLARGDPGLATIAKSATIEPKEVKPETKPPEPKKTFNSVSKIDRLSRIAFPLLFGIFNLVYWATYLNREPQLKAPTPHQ", "T2 sequence (P47870 26-512)": "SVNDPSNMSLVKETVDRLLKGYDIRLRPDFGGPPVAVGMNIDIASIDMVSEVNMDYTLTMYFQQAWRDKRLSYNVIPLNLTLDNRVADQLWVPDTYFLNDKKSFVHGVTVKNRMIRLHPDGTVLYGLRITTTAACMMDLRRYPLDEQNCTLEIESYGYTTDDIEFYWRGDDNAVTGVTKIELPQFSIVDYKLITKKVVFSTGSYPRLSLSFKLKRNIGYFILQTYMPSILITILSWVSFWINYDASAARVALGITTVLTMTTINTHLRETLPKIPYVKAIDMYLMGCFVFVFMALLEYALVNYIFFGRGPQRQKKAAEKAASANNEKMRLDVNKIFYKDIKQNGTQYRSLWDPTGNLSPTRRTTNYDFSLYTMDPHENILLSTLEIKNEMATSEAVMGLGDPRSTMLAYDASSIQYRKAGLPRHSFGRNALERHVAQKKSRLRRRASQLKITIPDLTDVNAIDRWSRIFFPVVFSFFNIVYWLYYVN", "T2 sequence (P18507 40-475 partner)": "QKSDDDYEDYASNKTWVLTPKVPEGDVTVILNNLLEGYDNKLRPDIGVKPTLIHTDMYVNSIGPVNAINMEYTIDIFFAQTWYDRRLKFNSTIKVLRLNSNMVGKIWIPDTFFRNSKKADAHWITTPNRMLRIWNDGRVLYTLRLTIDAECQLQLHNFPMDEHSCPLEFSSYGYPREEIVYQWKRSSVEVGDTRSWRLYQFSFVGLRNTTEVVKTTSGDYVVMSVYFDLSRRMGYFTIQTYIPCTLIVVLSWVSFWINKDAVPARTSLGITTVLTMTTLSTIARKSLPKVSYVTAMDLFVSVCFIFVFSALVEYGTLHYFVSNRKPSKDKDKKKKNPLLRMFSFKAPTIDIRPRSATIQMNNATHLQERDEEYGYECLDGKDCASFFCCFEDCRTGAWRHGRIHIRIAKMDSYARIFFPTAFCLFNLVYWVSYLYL", "experiment": "Patch-clamp (Dynaflow) current response in HEK-293 cells expressing the human alpha1,beta2,gamma2 GABAA receptor", "format": "cell-based", "settings": "for Androstandiol effect by itself (baseline shift), current response in absence of GABA: no GABA; for Antagonism of THDOC enhanced GABA effect, single dose: 1 μM UC1010 + 30 μM GABA + 200 nM THDOC; for Imax, maximal antagonism of THDOC effect in concentration-dependent experiment: 0.1-1 μM UC1010 + 30 μM GABA + 200 nM THDOC, max reached at 1 μM", "description": "as §1, §2, §3, §4, §5, §6, §7\nThe DYNAFLOW™ system allowed application of solutions for as short as 40 ms up to minutes in time.\nIn the experiments, THDOC and 3alpha-OH-adiol were used as the positive GABAA receptor modulating steroids.\nas §8, §9\nCell lines permanently expressing a functional human GABAA receptor was made in following steps. The GABAA receptor subunits alpha1,beta2,gamma2L or alpha4,beta3,delta including introduced Kozac sequences just before the start codons were subcloned into mammalian expression vectors containing Geneticin, Hygromycin B, and Zeocin resistance, respectively. A HEK-293 cell line stably expressing the three GABAA receptor subunits was produced by transfection of the subunits one at a time."}, "[4]": {"settings": "HEK293, read-out: Emax, androstandiol enhancement of GABA mediated current"}, "[5]": {"settings": "listed as 3beta-hydroxy-5alpha-pregnan-20-one"}}, "data": [{"smiles": "Cc1nnc2n1-c1ccc(Cl)cc1C(c1ccccc1)=NC2", "note": "[alprazolam]", "values": [{"measurement": "Reduction of tremor scores", "setting": "[1]", "value": 25, "unit": "%"}]}, {"smiles": "CCC1(c2ccccc2)C(=O)NCNC1=O", "note": "[Primidone, primidone]", "values": [{"measurement": "Reduction of tremor scores", "setting": "[1]", "value": "35-50%"}]}, {"smiles": "C[C@]12CC[C@@H](O)C[C@@H]1CC[C@@H]1[C@@H]2CC[C@]2(C)C(O)CC[C@@H]12", "note": "(stereo partly drawn) [Androstandiol, 3alpha-hydroxy-5alpha-androstan-17-ol]", "values": [{"measurement": "Potency at alpha4,beta3,delta relative to alpha1,beta2,gamma2 (higher)", "setting": "[2]; 0.38 μM vs. 3.4 μM", "value": 10, "unit": "times"}, {"measurement": "Androstandiol baseline shift, current response in absence of GABA", "setting": "[2]; 3 μM androstandiol, no GABA, Mean ± SEM", "value": "+8 ± 3.6 pA"}, {"measurement": "Androstandiol baseline shift, current response in absence of GABA", "setting": "[2]; 10 μM androstandiol, no GABA, Mean ± SEM", "value": "+13 ± 4.8 pA"}, {"measurement": "Emax", "setting": "[2]; [4]", "value": 142, "unit": "%"}, {"measurement": "Androstandiol effect by itself (baseline shift), current response in absence of GABA", "setting": "[3]; 3 μM androstandiol, Mean ± SEM", "value": "+8 ± 3.6 pA"}, {"measurement": "Androstandiol effect by itself (baseline shift), current response in absence of GABA", "setting": "[3]; 8 μM androstandiol, Mean ± SEM", "value": "+13 ± 2.3 pA"}, {"measurement": "Androstandiol effect by itself (baseline shift), current response in absence of GABA", "setting": "[3]; 10 μM androstandiol, Mean ± SEM", "value": "+11 ± 1.5 pA"}, {"measurement": "Androstandiol effect by itself (baseline shift), current response in absence of GABA", "setting": "[3]; 30 μM androstandiol, Mean ± SEM", "value": "+24 ± 6.8 pA"}, {"measurement": "Androstandiol effect by itself (baseline shift), current response in absence of GABA", "setting": "[3]; 100 μM androstandiol, Mean ± SEM", "value": "+43 ± 5.7 pA"}, {"measurement": "Emax", "setting": "[3]; [4]", "value": 281, "unit": "%"}, {"measurement": "Potency relative to THDOC in enhancing the effect of GABA (less potent)", "setting": "[3]; androstandiol vs THDOC", "value": 48, "unit": "times"}]}, {"smiles": "CC(=O)[C@H]1CC[C@H]2[C@@H]3CC[C@H]4C[C@@H](O)CC[C@]4(C)[C@H]3CC[C@]12C", "note": "[UC1010, 3beta-hydroxy-5alpha-pregnan-20-one]", "values": [{"measurement": "Effect of 1 μM UC1010 on 3 μM GABA response", "setting": "[2]; 1 μM UC1010, 3 μM GABA, Mean ± SEM, N=11, NS", "value": "−6.7 ± 3.3", "unit": "%"}, {"measurement": "Effect of 1 μM UC1010 on 0.6 μM Androstandiol + 3 μM GABA", "setting": "[2]; 1 μM UC1010, Mean ± SEM", "value": "−18 ± 2.0", "unit": "%"}, {"measurement": "Effect of 1 μM UC1010 on 0.8 μM Androstandiol + 3 μM GABA", "setting": "[2]; 1 μM UC1010, Mean ± SEM", "value": "−22 ± 2.6", "unit": "%"}, {"measurement": "Effect of 1 μM UC1010 on 0.1 μM THDOC alone baseline", "setting": "[2]; 1 μM UC1010, THDOC induced baseline shift without GABA, Mean ± SEM", "value": "−43 ± 3.5", "unit": "%"}, {"measurement": "Effect of UC1010 on GABA-mediated current response, GABA alone (in words)", "setting": "[2]; 1 μM UC1010, data not shown", "value": "without any significant effect"}, {"measurement": "Effect of 1 μM UC1010 on 0.1 μM THDOC + 3 μM GABA", "setting": "[2]; 1 μM UC1010, steady state, Mean ± SEM", "value": "−26 ± 2.4", "unit": "%"}, {"measurement": "Effect of the compound by itself, current response", "setting": "[2]; 1 μM, no GABA, no THDOC, N=11, NS vs EC solution", "value": "−0.4±0.3", "unit": "pA"}, {"measurement": "Antagonism of THDOC enhanced GABA effect, single dose", "setting": "[3]", "value": "−21 ± 4.6", "unit": "%"}, {"measurement": "Antagonism of THDOC enhanced GABA effect, single dose", "setting": "[3]; [5]", "value": "−22.3±5.3", "unit": "%"}, {"measurement": "Modulatory effect of UC1010 on GABA response", "setting": "[3]; 1 μM UC1010 + 30 μM GABA, vs GABA alone, NS, n=9", "value": "10.3±7.8", "unit": "%"}, {"measurement": "Effect of 1 μM UC1010 on 8 μM Androstandiol + 30 μM GABA", "setting": "[3]; 1 μM UC1010, steady state (phasic effect), Mean ± SEM", "value": "−30 ± 1.7", "unit": "%"}, {"measurement": "Effect of 1 μM UC1010 on 8 μM Androstandiol, baseline shift", "setting": "[3]; 1 μM UC1010, tonic effect without GABA, Mean ± SEM", "value": "−33 ± 7.6", "unit": "%"}, {"measurement": "Imax, maximal antagonism of THDOC effect in concentration-dependent experiment", "setting": "[3]", "value": "−21", "unit": "%"}, {"measurement": "Imax, maximal antagonism of THDOC effect in concentration-dependent experiment", "setting": "[3]; [5]", "value": "−21±4.6", "unit": "%"}]}, {"smiles": "C[C@]12CC[C@@H](O)C[C@H]1CC[C@@H]1[C@@H]2CC[C@]2(C)[C@@H](C(=O)CO)CC[C@@H]12", "note": "[THDOC, Tetrahydrodeoxycorticosterone]", "values": [{"measurement": "THDOC baseline shift, current response in absence of GABA", "setting": "[2]; 0.03 μM THDOC, no GABA, Mean ± SEM", "value": "+5 ± 3.3 pA"}, {"measurement": "THDOC baseline shift, current response in absence of GABA", "setting": "[2]; 0.1 μM THDOC, no GABA, Mean ± SEM", "value": "+15 ± 9.5 pA"}, {"measurement": "THDOC baseline shift, current response in absence of GABA", "setting": "[2]; 0.3 μM THDOC, no GABA, Mean ± SEM", "value": "+12 ± 7.9 pA"}, {"measurement": "THDOC baseline shift, current response in absence of GABA", "setting": "[2]; 1 μM THDOC, no GABA, Mean ± SEM", "value": "+69 ± 35 pA"}, {"measurement": "Emax, THDOC enhancement of GABA mediated current", "setting": "[2]; 3 μM GABA", "value": 297, "unit": "%"}, {"measurement": "EC50", "setting": "[2]; read-out: EC50, THDOC enhancement of GABA mediated current, 3 μM GABA", "value": 47, "unit": "nM"}, {"measurement": "Imax/Emax, THDOC enhancement of GABA mediated current", "setting": "[3]; 0.03-1 μM THDOC + 30 μM GABA, control 30 μM GABA set to 0", "value": "+115%"}]}, {"smiles": "CCO", "note": "[Alcohol]", "values": [{"measurement": "Reduction in tremor scores", "setting": "[1]; only during a short period (30 minutes) with a rebound later", "value": 50, "unit": "%"}]}]}
